Biological target: CatB (Homo sapiens, UniProt P07858)
Assay: SDS-PAGE of adduct formation with CatB
Type: biochemical
Conditions: co-incubation with conjugates and CatB, SDS-PAGE autoradiography

## CCCNC(=O)[C@H]1O[C@@H]1C(=O)N[C@H](C(=O)N1CCC[C@H]1C(=O)O)[C@@H](C)CC [CA-074]
  Effect of co-incubation on CatB adducts of the conjugates: eliminated observable CatB adducts

Reference: article PMC6181586 (Chemical communications (Cambridge, England), 2018)
